{
  "source": "BindingDB's records for doi:10.1021/jm00007a013",
  "about": "(Chul Research Center, 1995)",
  "data": [
    {"assay": "In vitro inhibition of DHT (dihydrotestosterone) on proliferation of androgen-sensitive cancer Schionogi (SC-3) cells", "units": {"IC50": "nM"}, "values": [
      {"smiles": "CCN(CC)C(=O)[C@H]1CCC2C3CC[C@H]4N(C)C(=O)CC[C@]4(C)C3CC[C@@]21C", "note": "(stereo partly drawn) [(4aR,6aS,7S,11aR)-1,4a,6a-Trimethyl-2-oxo-hexadecahydro-indeno[5,4-f]quinoline-7-carboxylic acid diethylamide]", "IC50": 463},
      {"smiles": "CCC(CC)N(C=O)[C@H]1CCC2C3CC[C@H]4N(C)C(=O)CC[C@]4(C)C3CC[C@@]21C", "note": "(stereo partly drawn) [N-(1-Ethyl-propyl)-N-((4aR,6aS,7S,11aR)-1,4a,6a-trimethyl-2-oxo-hexadecahydro-indeno[5,4-f]quinolin-7-yl)-formamide]", "IC50": 90},
      {"smiles": "CN1C(=O)CC[C@]2(C)C3CC[C@@]4(C)C(CC[C@@H]4N(C=O)CCC(C)(C)C)C3CC[C@@H]12", "note": "(stereo partly drawn) [N-(3,3-Dimethyl-butyl)-N-((4aR,6aS,7S,11aR)-1,4a,6a-trimethyl-2-oxo-hexadecahydro-indeno[5,4-f]quinolin-7-yl)-formamide]", "IC50": 171},
      {"smiles": "CC(C)CCN(C=O)[C@H]1CCC2C3CC[C@H]4N(C)C(=O)CC[C@]4(C)C3CC[C@@]21C", "note": "(stereo partly drawn) [N-(3-Methyl-butyl)-N-((4aR,6aS,7S,11aR)-1,4a,6a-trimethyl-2-oxo-hexadecahydro-indeno[5,4-f]quinolin-7-yl)-formamide]", "IC50": 46},
      {"smiles": "CCCCN(C=O)[C@H]1CCC2C3CC[C@H]4N(C)C(=O)CC[C@]4(C)C3CC[C@@]21C", "note": "(stereo partly drawn) [N-Butyl-N-((4aR,6aS,7S,11aR)-1,4a,6a-trimethyl-2-oxo-hexadecahydro-indeno[5,4-f]quinolin-7-yl)-formamide]", "IC50": 166},
      {"smiles": "CCCCCCCN(C=O)[C@H]1CCC2C3CC[C@H]4N(C)C(=O)CC[C@]4(C)C3CC[C@@]21C", "note": "(stereo partly drawn) [N-Heptyl-N-((4aR,6aS,7S,11aR)-1,4a,6a-trimethyl-2-oxo-hexadecahydro-indeno[5,4-f]quinolin-7-yl)-formamide]", "IC50": 58},
      {"smiles": "CCCCCCN(C=O)[C@H]1CCC2C3CC[C@H]4N(C)C(=O)CC[C@]4(C)C3CC[C@@]21C", "note": "(stereo partly drawn) [N-Hexyl-N-((4aR,6aS,7S,11aR)-1,4a,6a-trimethyl-2-oxo-hexadecahydro-indeno[5,4-f]quinolin-7-yl)-formamide]", "IC50": 89},
      {"smiles": "CC(C)CN(C=O)[C@H]1CCC2C3CC[C@H]4N(C)C(=O)CC[C@]4(C)C3CC[C@@]21C", "note": "(stereo partly drawn) [N-Isobutyl-N-((4aR,6aS,7S,11aR)-1,4a,6a-trimethyl-2-oxo-hexadecahydro-indeno[5,4-f]quinolin-7-yl)-formamide]", "IC50": 994},
      {"smiles": "CC(C)N(C=O)[C@H]1CCC2C3CC[C@H]4N(C)C(=O)CC[C@]4(C)C3CC[C@@]21C", "note": "(stereo partly drawn) [N-Isopropyl-N-((4aR,6aS,7S,11aR)-1,4a,6a-trimethyl-2-oxo-hexadecahydro-indeno[5,4-f]quinolin-7-yl)-formamide]", "IC50": 162},
      {"smiles": "CN(C=O)[C@H]1CCC2C3CC[C@H]4N(C)C(=O)CC[C@]4(C)C3CC[C@@]21C", "note": "(stereo partly drawn) [N-Methyl-N-((4aR,6aS,7S,11aR)-1,4a,6a-trimethyl-2-oxo-hexadecahydro-indeno[5,4-f]quinolin-7-yl)-formamide]", "IC50": 1480},
      {"smiles": "CCCCCCCCN(C=O)[C@H]1CCC2C3CC[C@H]4N(C)C(=O)CC[C@]4(C)C3CC[C@@]21C", "note": "(stereo partly drawn) [N-Octyl-N-((4aR,6aS,7S,11aR)-1,4a,6a-trimethyl-2-oxo-hexadecahydro-indeno[5,4-f]quinolin-7-yl)-formamide]", "IC50": 50},
      {"smiles": "CCCCCN(C=O)[C@H]1CCC2C3CC[C@H]4N(C)C(=O)CC[C@]4(C)C3CC[C@@]21C", "note": "(stereo partly drawn) [N-Pentyl-N-((4aR,6aS,7S,11aR)-1,4a,6a-trimethyl-2-oxo-hexadecahydro-indeno[5,4-f]quinolin-7-yl)-formamide]", "IC50": 96},
      {"smiles": "CCCN(C=O)[C@H]1CCC2C3CC[C@H]4N(C)C(=O)CC[C@]4(C)C3CC[C@@]21C", "note": "(stereo partly drawn) [N-Propyl-N-((4aR,6aS,7S,11aR)-1,4a,6a-trimethyl-2-oxo-hexadecahydro-indeno[5,4-f]quinolin-7-yl)-formamide]", "IC50": 989}
    ]}
  ]
}
